pIC50: −log10 of the molar value. Where two headings read alike, the source gives them in different places.
How the values were obtained:
[1] = target: T1, PRMT5/MEP50-MTA protein complex (Homo sapiens, UniProt O14744); experiment: Thermal shift assay: thermal stability (melting temperature) of PRMT5/MEP50-MTA protein complex; assay type: binding; settings: final compound concentration 8 µM; 2 µM PRMT5/MEP50, 2 µM MTA; Tm minus Tm of DMSO vehicle control
T1 construct: purchased Viva Biotech
Method in brief: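 Human PRMT5/MEP50 (2 µM) was preincubated 30 min with 2 µM MTA in 50 mM HEPES, 10 mM DTT, 250 mM NaCl with SYPRO Orange. Compound at 8 µM final (2.5% DMSO vehicle) was added for 10 minutes, then samples were heated 25°C to 95°C at 0.03°C/s. Tm was derived from the melt curve.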

[2] = system: MTAP Knockout HCT116 cells; experiment: Cell proliferation inhibition (CellTiter-Glo), HCT116 MTAP knockout cells; assay type: cell-based; settings: for Selectivity: HCT116 IC50 versus MTAP Knockout HCT116 IC50
Method in brief: (§1)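 Cells were grown in McCoy's 5A with 10% FBS, adhered overnight, then exposed to serial compound dilutions for 72-240 h at 37°C, 5% CO2, with a vehicle control. Viability was read as CellTiter-Glo luminescence, and IC50 came from nonlinear regression of inhibition rate against concentration.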

hERG potassium channel = hERG potassium channel (Homo sapiens, UniProt Q12809); experiment: hERG potassium channel inhibitory activity assay (CHO-hERG cells, tail current); assay type: cell-based; settings: inhibition of tail current, read-out: inhibitory activity (IC50) against the cardiac hERG potassium channel
hERG potassium channel, sequence (Q12809 whole entry): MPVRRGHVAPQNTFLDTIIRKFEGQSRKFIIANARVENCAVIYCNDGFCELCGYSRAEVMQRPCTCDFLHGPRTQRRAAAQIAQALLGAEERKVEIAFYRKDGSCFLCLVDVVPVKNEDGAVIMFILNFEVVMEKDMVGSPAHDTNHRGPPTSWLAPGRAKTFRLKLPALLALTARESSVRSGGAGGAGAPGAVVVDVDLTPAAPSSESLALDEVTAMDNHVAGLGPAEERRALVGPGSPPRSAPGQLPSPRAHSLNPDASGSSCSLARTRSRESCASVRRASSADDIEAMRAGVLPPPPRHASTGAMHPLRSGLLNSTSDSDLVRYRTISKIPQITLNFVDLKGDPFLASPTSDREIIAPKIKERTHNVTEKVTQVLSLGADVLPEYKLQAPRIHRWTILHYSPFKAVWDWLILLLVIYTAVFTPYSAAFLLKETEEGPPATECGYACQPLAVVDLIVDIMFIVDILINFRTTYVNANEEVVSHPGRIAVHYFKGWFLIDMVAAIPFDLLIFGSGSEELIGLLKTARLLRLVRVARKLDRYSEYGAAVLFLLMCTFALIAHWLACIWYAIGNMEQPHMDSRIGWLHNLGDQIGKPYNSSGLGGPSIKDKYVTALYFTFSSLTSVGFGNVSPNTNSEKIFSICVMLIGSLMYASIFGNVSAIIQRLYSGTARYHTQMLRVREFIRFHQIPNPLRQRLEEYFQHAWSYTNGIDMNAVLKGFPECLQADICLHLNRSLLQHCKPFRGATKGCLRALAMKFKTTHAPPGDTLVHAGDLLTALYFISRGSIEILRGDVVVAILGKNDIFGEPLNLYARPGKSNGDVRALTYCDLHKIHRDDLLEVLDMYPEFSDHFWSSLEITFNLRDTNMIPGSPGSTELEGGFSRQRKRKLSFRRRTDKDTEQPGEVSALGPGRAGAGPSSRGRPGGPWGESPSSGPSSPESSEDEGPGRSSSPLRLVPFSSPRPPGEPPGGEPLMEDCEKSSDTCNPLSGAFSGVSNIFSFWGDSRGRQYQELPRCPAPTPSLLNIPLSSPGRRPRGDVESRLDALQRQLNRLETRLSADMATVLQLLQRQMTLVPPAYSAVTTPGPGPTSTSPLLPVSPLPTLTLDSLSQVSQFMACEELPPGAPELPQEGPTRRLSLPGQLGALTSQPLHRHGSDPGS
Text: Test Example 5: hERG potassium channel inhibitory activity assay
1 Study objective: The objective of this test example is to determine the inhibitory effect of the compound on the hERG potassium channel activity. 2 Experimental instruments and reagents: 2.1 Reagents
3. Experimental method • 3.1 Cell culture: The CHO cells stably expressing the hERG potassium channel (CHO-hERG) used in the experiment were obtained from Sophion Bioscience (Ballerup, Denmark), and passaged and cryopreserved at WuXi AppTec Co., Ltd. in Shanghai. The CHO-hERG cells were cultured and passaged in Ham's F-12 medium containing 1 × GlutaMAX, 10% foetal bovine serum, 100 µg/mL G418 and 100 µg/mL hygromycin B at 37°C with 5% CO2. • 3.2 Preparation of intracellular and extracellular solutions: The extracellular solution was prepared once a month, and aliquoted and stored in 1 L storage bottles. The intracellular solution was prepared once every three months, and aliquoted and cryopreserved at -20°C. The intracellular solution was thawed in a 37°C water bath before the experiment and then placed in an ice bath for later use. • 3.3 Preparation of compounds: The positive control drug amitriptyline hydrochloride and the compounds were dissolved in 100% DMSO (Sigma-Aldrich, D2650) to prepare 10 mM or 30 mM stock solutions. Before the experiment, the stock solutions of the test compounds were diluted with DMSO to prepare solutions 1000-fold or 333-fold higher than the desired test concentrations, and then further diluted 1000-fold or 333-fold with the extracellular solution to achieve the desired concentrations. • 3.4 Cell preparation: The CHO-hERG cells used in the experiment were cultured for at least two days. When the cell density reached more than 75%, the cells were digested with TrypLE, then resuspended in the extracellular solution, and centrifuged. The supernatant was discarded, and then the cells were further resuspended in 2 mL of extracellular solution for later use. • 3.4 Experimental data processing: In data processing, the peak tail current was baseline-corrected when evaluating the hERG blocking effect. The effect of each compound at various concentrations was expressed as the inhibition rate of the tail current. IC50 values were obtained by fitting the data to the Hill equation: I/Icontrol =Bottom + (Top-Bottom)/(1+10^((LogIC50-X) * HillSlope)) • Top: maximum effect; Bottom: minimum effect; Hillslope: slope; X: concentration of the test compound. • IC50: half-maximal inhibitory concentration of the test compound on hERG.

[3] = Pharmacokinetics in rats (plasma) after oral administration; assay type: in vivo; settings: SD rats, p.o. 5 mg/kg; for MRT inf: read-out: MRT0-∞
Method: Test Example 4: Determination of the pharmacokinetics of the compounds of the present invention in rats (plasma) after oral administration.
1 Study objective: SD rats were used as test animals to study the pharmacokinetic behaviour of the following example compounds in rats (plasma) after oral administration at a dose of 5 mg/kg. 2 Test scheme • 2.1 Test drugs: Vehicle formula: 0.5% CMC-Na (1% Tween 80); the examples of the present invention, made in house. • 2.2 Test animals: 3 SD rats per group, male, purchased from Shanghai Bikai Keyi Biotechnology Co., Ltd., with animal license number (SCXK (Shanghai) 2018-0006, No.20180006037467). • 2.3 Administration: 3 SD rats per group, male, were fasted overnight and then respectively administered PO at a dose of 5 mg/kg and a volume of 10 mL/kg. • 2.4 Sample collection: 0.2 mL of blood was collected from the jugular vein of rats before administration and at 0, 0.25, 0.5, 1, 2, 4, 6, 8 and 24 h after administration, and placed in EDTA-K2test tubes, and the test tubes were centrifuged at 6,000 rpm at 4°C for 6 min to separate the plasma, which was stored at -80°C. The animals were fed 4 h after administration. • 2.5 Sample treatment • 1) 160 uL of acetonitrile was added to 40 uL of plasma sample for precipitation, and after mixing, the mixture was centrifuged at 3,500 × g for 5-20 minutes. • 2) 100 uL of the treated supernatant solution was taken for LC/MS/MS analysis to determine the concentration of the test compounds. • 2.6 Liquid phase analysis • Liquid phase conditions: Shimadzu LC-20AD pump;mass spectrometry conditions: AB Sciex API 4000 mass spectrometer • Chromatographic column: Phenomenex Gemiu 5 um C18 50 × 4.6 mm • Mobile phase: solution A: 0.1% formic acid in water, solution B: methanol • Flow rate: 1.0 mL/min, elution time: 0-4.0 min, with eluents as follows:
Experimental results and analysis: The main pharmacokinetic parameters were calculated using WinNonlin 8.2.

HCT116 wild-type cells = experiment: Cell proliferation inhibition (CellTiter-Glo), HCT116 wild-type cells; assay type: cell-based
Method in brief: as §1

[4] = Homo sapiens, HCT-116, read-out: MTAP Knockout HCT116 IC50
[5] = Homo sapiens, HCT-116, read-out: HCT116 IC50
[6] = Homo sapiens, HCT-116, MTAP Knockout HCT116 cells, proliferation inhibition, Cell Titer-Glo, read-out: MTAP Knockout HCT116 IC50
[7] = Homo sapiens, HCT-116, HCT116 wild-type cells, proliferation inhibition, Cell Titer-Glo, read-out: HCT116 IC50

T1 sequence (O14744 whole entry): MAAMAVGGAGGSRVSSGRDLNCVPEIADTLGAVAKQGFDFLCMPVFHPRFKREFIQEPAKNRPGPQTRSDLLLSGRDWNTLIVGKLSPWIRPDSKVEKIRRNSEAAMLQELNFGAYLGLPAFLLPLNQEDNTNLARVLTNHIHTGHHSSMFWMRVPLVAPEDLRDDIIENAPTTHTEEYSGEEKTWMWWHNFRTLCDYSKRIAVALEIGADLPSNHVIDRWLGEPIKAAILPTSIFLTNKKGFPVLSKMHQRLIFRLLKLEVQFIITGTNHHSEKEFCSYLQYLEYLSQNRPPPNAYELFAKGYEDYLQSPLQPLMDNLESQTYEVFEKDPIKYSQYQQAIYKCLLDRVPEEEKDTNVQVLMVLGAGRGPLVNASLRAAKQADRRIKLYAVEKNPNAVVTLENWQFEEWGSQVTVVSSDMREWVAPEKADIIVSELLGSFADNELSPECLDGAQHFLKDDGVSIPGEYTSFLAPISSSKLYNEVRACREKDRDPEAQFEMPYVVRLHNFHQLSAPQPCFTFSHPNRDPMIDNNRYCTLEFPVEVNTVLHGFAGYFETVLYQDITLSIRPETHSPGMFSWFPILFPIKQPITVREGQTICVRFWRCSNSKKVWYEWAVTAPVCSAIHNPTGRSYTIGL
T1 sequence (Q9BQA1 whole entry partner): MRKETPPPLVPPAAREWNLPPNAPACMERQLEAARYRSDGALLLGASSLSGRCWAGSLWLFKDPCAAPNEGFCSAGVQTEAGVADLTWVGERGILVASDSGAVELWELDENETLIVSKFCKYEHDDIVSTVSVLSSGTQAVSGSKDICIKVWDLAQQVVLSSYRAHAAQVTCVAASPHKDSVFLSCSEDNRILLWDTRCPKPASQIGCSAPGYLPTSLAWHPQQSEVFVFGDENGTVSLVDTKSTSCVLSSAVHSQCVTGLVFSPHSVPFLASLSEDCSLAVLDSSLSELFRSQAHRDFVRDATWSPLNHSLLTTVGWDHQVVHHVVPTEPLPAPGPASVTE

Molecule | ΔTm at 8 µM [1] [°C] | Selectivity [2] | pIC50 [2, 4] | pIC50 (hERG potassium channel) | pIC50 (HCT116 wild-type cells; [5]) | pIC50 [2, 6] | pIC50 (HCT116 wild-type cells; [7]) | other results
Nc1nc2cc3c(cc2c2c1COC2)C(=O)N(Cc1ccc(C(F)(F)F)cn1)CCCOC3 [Example 178, 4-Amino-12-((5-(trifluoromethyl)pyridin-2-yl)methyl)-3,7,9,10,11,12-hexahydrofuro[3,4-c][1,5]oxazolino[7,8-g]quinolin-13(1H)-one] | 11.2 | 131 | 7.74 | < 4.52 | 5.62 |  |  | AUC(0-inf) ([3]; rat, po): 2790 ng·h/mL; half-life ([3]; rat, po): 1.9 h; Cmax ([3]; rat, po, read-out: Cmax): 544 ng/mL; MRT inf ([3]; rat, po): 3.7 h; Tmax ([3]; rat, po, read-out: tmax): 1.7 h
Nc1nc2cc3c(cc2n2cncc12)C(=O)N(Cc1ccc(C(F)(F)F)cn1)CCCCOC3 [Example 417, 4-Amino-13-((5-(trifluoromethyl)pyridin-2-yl)methyl)-10,11,12,13-tetrahydro-7H-imidazo [1,5-a][1,6] oxazino [3,4-g] quinoxalin-14(9H)-one] | 11.1 | 346 | 7.96 | < 4.52 | 5.42 |  |  | 
Nc1nc2cc3c(cc2n2cncc12)C(=O)N(Cc1ccc(C(F)(F)F)cn1)CC/C=C\3 [Example 416, (Z)-4-Amino-11-(5-(trifluoromethyl)pyridin-2-yl)methyl-10,11-dihydroazocino[4,3-g]imidazo[1,5-a]quinoxalin-12(9H)-one] | 12.4 | 93 |  |  |  | 8.62 | 6.65 | AUC(0-inf) ([3]; male, rat, po): 1520 ng·h/mL; half-life ([3]; male, rat, po): 1.3 h; Cmax ([3]; male, rat, po, read-out: Cmax): 395 ng/mL; MRT inf ([3]; male, rat, po): 2.9 h; Tmax ([3]; male, rat, po, read-out: tmax): 2 h
Nc1nc2cc3c(cc2c2c1COC2)C(=O)N(C1COCc2nc(C(F)(F)F)ccc21)CCC/C=C\3 (single isomer, unassigned) [Example 165-P1] | 11.9 | 132 |  |  |  | 8.28 | 6.17 | AUC(0-inf) ([3]; male, rat, po): 999 ng·h/mL; half-life ([3]; male, rat, po): 1.5 h; Cmax ([3]; male, rat, po, read-out: Cmax): 321 ng/mL; MRT inf ([3]; male, rat, po): 2.5 h; Tmax ([3]; male, rat, po, read-out: tmax): 1 h
(Z)-4-Amino-12-((5-(trifluoromethyl)pyridin-2-yl)methyl)-9,10,11,12-tetrahydro-13H-azonino[4,3-g]imidazo[1,5-a]quinoxalin-13-one [Example 171] |  | 90 |  |  |  |  |  | ΔTm (°C) [1]: 12.03 °C; pIC50 ([2]; MTAP Knockout HCT116 cells, proliferation inhibition, Cell Titer-Glo, read-out: MTAP Knockout HCT116 IC50): 8.59; AUC 0-∞ [3]: 1058 ng·h/mL; Cmax [3]: 283 ng/mL; MRT0-∞ [3]: 2.9 h; Tmax [3]: 1.0 h; t1/2 [3]: 1.6 h; pIC50 (HCT116 wild-type cells; HCT116 wild-type cells, proliferation inhibition, Cell Titer-Glo, read-out: HCT116 IC50): 6.63
Nc1nc2cc3c(cc2n2cncc12)C(=O)N(Cc1ccc(-c2c(F)cccc2F)cn1)CCCOC3 [Example 298, 4-Amino-12-((5-(2,6-difluorophenyl)pyridin-2-yl)methyl)-9,10,11,12-tetrahydroimidazo[1,5-a][1,5]oxazolo[8,7-g]quinoxalin-13(7H)-one] | 12.5 | 81 | 8.57 | < 4.52 | 6.66 |  |  | 
Nc1nc2cc3c(cc2n2cncc12)C(=O)N(Cc1ccc(C(F)(F)F)cn1)CCCOC3 [Example 176, 4-Amino-12-((5-(trifluoromethyl)pyridin-2-yl)methyl)-9,10,11,12-tetrahydroimidazo[1,5-a][1,5]oxazonino[8,7-g]quinoxalin-13(7H)-one] | 11.5 | 62 |  | < 4.52 |  | 7.82 | 6.02 | 
